Test [1] addresses Matrix metalloproteinase-9 (Homo sapiens, UniProt P14780). Kind of test: Inhibition of recombinant human matrix metalloprotease-9 (gelatinase B).
Test [2] concerns the target T1, Interstitial collagenase (Homo sapiens, UniProt P03956).
T1 sequence (P03956 whole entry): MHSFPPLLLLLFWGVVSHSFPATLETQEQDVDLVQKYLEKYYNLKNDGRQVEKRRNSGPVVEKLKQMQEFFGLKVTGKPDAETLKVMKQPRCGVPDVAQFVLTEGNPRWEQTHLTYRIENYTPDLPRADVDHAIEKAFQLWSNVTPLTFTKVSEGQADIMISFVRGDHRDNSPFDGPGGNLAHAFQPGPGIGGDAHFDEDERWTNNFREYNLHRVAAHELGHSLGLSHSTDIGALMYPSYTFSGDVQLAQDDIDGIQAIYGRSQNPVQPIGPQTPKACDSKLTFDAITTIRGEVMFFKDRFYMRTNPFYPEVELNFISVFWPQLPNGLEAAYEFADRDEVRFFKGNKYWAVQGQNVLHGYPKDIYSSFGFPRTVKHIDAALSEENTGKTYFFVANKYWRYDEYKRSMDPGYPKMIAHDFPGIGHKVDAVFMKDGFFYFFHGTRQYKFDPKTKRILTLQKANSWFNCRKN
Kind of test: Inhibition of Recombinant human matrix metalloprotease-1.

For test [3], the target named is Disintegrin and metalloproteinase domain-containing protein 17 (Homo sapiens, UniProt P78536). Kind of test: Inhibition of recombinant human tumor necrosis factor-alpha converting enzyme.
The target in another test is Stromelysin-1 (Homo sapiens, UniProt P08254). The test can be described thus: Inhibition of recombinant human matrix metalloprotease-3.
Test [4] has as its target T1, Interstitial collagenase. The test can be described thus: Inhibition of recombinant human matrix metalloprotease-1.

Matrix metalloproteinase-9, sequence (P14780 whole entry): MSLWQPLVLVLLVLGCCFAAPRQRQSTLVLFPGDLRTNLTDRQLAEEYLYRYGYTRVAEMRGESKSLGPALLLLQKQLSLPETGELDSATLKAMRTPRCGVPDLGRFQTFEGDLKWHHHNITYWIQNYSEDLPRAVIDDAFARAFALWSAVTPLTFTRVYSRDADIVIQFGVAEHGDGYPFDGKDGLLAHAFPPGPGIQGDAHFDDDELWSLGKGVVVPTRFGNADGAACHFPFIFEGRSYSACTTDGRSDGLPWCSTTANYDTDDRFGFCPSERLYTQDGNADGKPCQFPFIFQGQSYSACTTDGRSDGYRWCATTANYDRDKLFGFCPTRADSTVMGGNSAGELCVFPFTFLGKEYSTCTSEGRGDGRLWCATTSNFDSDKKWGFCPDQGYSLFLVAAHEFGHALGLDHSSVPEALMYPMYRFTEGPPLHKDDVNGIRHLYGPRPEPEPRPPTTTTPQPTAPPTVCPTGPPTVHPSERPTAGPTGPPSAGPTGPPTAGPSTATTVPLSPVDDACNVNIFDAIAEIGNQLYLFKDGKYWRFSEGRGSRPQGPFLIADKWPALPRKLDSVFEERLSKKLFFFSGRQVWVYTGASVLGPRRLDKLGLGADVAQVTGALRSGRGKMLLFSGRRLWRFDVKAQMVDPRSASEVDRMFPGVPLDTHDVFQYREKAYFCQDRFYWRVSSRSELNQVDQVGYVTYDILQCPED
Disintegrin and metalloproteinase domain-containing protein 17, sequence (P78536 whole entry, the tested form may be a part): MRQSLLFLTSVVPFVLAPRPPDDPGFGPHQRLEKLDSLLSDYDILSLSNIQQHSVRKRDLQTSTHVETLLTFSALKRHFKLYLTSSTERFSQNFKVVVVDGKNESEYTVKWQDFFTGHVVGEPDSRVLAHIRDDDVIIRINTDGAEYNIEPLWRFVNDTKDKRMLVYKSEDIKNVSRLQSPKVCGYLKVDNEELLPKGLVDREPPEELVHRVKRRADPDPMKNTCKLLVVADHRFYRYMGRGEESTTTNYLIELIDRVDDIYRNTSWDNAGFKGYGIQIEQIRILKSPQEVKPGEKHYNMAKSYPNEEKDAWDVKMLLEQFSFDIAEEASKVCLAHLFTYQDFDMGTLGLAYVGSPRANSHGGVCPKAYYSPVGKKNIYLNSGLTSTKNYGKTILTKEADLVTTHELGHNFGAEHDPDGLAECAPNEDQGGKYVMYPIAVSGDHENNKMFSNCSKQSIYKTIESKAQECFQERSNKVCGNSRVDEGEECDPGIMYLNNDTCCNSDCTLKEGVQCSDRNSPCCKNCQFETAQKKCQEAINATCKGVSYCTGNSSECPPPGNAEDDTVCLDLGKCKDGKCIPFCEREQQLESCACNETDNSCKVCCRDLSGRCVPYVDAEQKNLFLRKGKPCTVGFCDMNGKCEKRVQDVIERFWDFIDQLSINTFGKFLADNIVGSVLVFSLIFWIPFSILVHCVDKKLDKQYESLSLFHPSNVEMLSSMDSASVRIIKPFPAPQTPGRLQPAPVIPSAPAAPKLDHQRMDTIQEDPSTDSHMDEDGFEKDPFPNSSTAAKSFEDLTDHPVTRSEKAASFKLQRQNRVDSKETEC
Stromelysin-1, sequence (P08254 whole entry): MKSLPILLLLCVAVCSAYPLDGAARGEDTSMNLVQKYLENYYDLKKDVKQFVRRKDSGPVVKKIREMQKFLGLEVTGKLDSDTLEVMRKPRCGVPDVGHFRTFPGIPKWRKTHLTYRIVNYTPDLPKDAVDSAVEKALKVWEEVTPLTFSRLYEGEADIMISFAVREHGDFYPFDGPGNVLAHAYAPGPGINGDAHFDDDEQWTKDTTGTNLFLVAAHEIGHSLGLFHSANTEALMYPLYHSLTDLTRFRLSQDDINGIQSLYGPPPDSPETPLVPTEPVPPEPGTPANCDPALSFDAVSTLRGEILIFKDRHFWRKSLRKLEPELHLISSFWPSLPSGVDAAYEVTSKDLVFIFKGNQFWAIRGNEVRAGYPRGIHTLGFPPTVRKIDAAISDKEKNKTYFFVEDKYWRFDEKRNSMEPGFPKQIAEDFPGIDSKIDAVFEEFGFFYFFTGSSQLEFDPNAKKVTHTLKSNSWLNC

A word on the Ki: it is a measure of affinity in units of concentration, obtained from inhibition or displacement. With `COc1ccc(S(=O)(=O)N2C[C@@H]3OC(C)(C)O[C@H]3[C@@H](OC(C)=O)[C@@H]2C(=O)NO)cc1`, the Ki in test [1] turned out to be 47 nM; at Interstitial collagenase [2], 162 nM; in test [3] it was 21 nM; on Stromelysin-1, 50 nM.

On to `COc1ccc(S(=O)(=O)N2C[C@@H]3OC(C)(C)O[C@H]3[C@@H](O)[C@@H]2C(=O)NO)cc1`, for which the Ki was found to be 21 nM in test [1], 26 nM at Interstitial collagenase [2], 40 nM in test [3] and 3.7 nM at Stromelysin-1.

As to `COc1ccc(S(=O)(=O)N2C[C@H](O)[C@H]3OC(C)(C)O[C@H]3[C@@H]2C(=O)NO)cc1`, the Ki was determined as 310 nM in test [1], 22 nM in test [3], 44 nM on Stromelysin-1 and 554 nM on Interstitial collagenase [4].

The record behind these values is ChEMBL document CHEMBL1136160, “Design, synthesis and evaluation of novel azasugar-based MMP/ADAM inhibitors” (Bioorg Med Chem Lett, 2003).
